In patent publication US20260022142A1, “MACROCYCLIC IMMUNOMODULATORS” (Bristol-Myers Squibb Company, priority 2022, published 2026):
Bridge positions count the residues as written; N and C are the ends. Square brackets hold non-standard residues; d marks the D form. Peptide text beside a SMILES is read from it. * marks the point of attachment. ξ: configuration not given here. Bip = N[C@@H](Cc1ccc(-c2ccccc2)cc1)C(=O)O; Phe(3-Me) = Cc1cccc(C[C@H](N)C(=O)O)c1; Val(3-OH) = CC(C)(O)[C@H](N)C(=O)O; Cha = N[C@@H](CC1CCCCC1)C(=O)O; Thr(3ξ) = CC(O)[C@H](N)C(=O)O; NMeNle = CCCC[C@H](NC)C(=O)O; 12Ado = NCCCCCCCCCCCC(=O)O; Carboxymethyl = O=C(O)C*; Orn = NCCC[C@H](N)C(=O)O; Aun = NCCCCCCCCCCC(=O)O; Dab = NCC[C@H](N)C(=O)O

Target: T1, PD-1/PD-L1 interaction (PE-labeled human PD-L1-Ig binding to Jurkat cell line over-expressing human PD-1) (Homo sapiens, UniProt Q15116)
T1 construct: expressed in transfected cells; host or cells: Jurkat
Experiment: Jurkat-PD-1 Cell Binding High-Content Screening Assay (CBA)
Type: cell-based
Details: Jurkat cell line over-expressing human PD-1; PE-labeled PD-L1-Ig 20 nM final; read-out: Jurkat hPD1-PDL1 IC50
In short: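 Read-out is high-content imaging of cell-bound phycoerythrin-tagged PD-L1-Ig on fixed, Hoechst-counterstained Jurkat cells that over-express human PD-1. Compound exposure lasts 2 h at 37° C before the labeled ligand (20 nM final) is added for a further hour.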

T1 sequence (Q15116 25-288): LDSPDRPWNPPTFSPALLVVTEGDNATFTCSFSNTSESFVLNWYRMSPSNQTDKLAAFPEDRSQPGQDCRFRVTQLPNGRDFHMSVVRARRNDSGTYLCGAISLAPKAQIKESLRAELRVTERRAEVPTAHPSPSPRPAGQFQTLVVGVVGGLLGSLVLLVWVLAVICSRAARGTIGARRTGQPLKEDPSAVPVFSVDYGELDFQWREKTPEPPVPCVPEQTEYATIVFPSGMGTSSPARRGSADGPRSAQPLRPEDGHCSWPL

SMILES	IC50 [nM]
CC(=O)NCCCC[C@@H]1NC(=O)[C@H](Cc2ccc(-c3ccccc3)cc2)NC(=O)[C@H](Cc2ccc(O)cc2)NC(=O)[C@H](Cc2cccc(C)c2)NC(=O)[C@H](CC(=O)O)NC(=O)[C@H](Cc2ccc(OCC(=O)O)cc2)NC(=O)[C@H](CCN)NC(=O)CSC[C@@H](C(=O)N[C@@H](CCN)C(=O)N[C@@H](CO)C(=O)NCCCCCCCCCCCC(=O)O)NC(=O)[C@H](CO)NC(=O)[C@H](CCCCN)NC(=O)[C@H](CC2CCCCC2)NC(=O)[C@H](CCN)NC(=O)[C@@H](CC(C)C)NC(=O)[C@H](CCCN)NC1=O [Compound 3627] ({CH2CO}-[Dab]Y(Carboxymethyl)D[Phe(3-Me)]Y[Bip]K(Ac)[Orn][dL][Dab][Cha]KSC[Dab]S[12Ado]-OH; thioether N-14)	36.7
Cc1cccc(C[C@@H]2NC(=O)[C@H](CC(=O)O)NC(=O)[C@H](Cc3ccc(OCC(=O)O)cc3)NC(=O)[C@H](Cc3ccccc3)NC(=O)CSC[C@@H](C(=O)N[C@@H](CCN)C(=O)NCCCCCCCCCCC(=O)O)NC(=O)[C@H](CO)NC(=O)[C@H](C(C)(C)O)NC(=O)[C@H](CC3CCCCC3)NC(=O)[C@H](CCN)NC(=O)[C@@H](CC(C)C)NC(=O)[C@H](CCCN)NC(=O)[C@H](Cc3ccc(OCC(=O)O)cc3)NC(=O)[C@H](Cc3ccc(-c4ccccc4)cc3)NC(=O)[C@H](Cc3ccc(OCC(=O)O)cc3)NC2=O)c1 [Compound 3628] ({CH2CO}-FY(Carboxymethyl)D[Phe(3-Me)]Y(Carboxymethyl)[Bip]Y(Carboxymethyl)[Orn][dL][Dab][Cha][Val(3-OH)]SC[Dab][Aun]-OH; thioether N-14)	23
Cc1cccc(C[C@@H]2NC(=O)[C@H](CC(=O)O)NC(=O)[C@H](Cc3ccc(OCC(=O)O)cc3)NC(=O)[C@H](CCN)NC(=O)CSC[C@@H](C(=O)N[C@@H](CCN)C(=O)NCCCCCCCCCCC(=O)O)NC(=O)[C@H](CO)NC(=O)[C@H](C(C)(C)O)NC(=O)[C@H](CC3CCCCC3)NC(=O)[C@H](CCN)NC(=O)[C@@H](CC(C)C)NC(=O)[C@H](CCCN)NC(=O)[C@H](Cc3ccc(OCC(=O)O)cc3)NC(=O)[C@H](Cc3ccc(-c4ccccc4)cc3)NC(=O)[C@H](Cc3ccc(OCC(=O)O)cc3)NC2=O)c1 [Compound 3629] ({CH2CO}-[Dab]Y(Carboxymethyl)D[Phe(3-Me)]Y(Carboxymethyl)[Bip]Y(Carboxymethyl)[Orn][dL][Dab][Cha][Val(3-OH)]SC[Dab][Aun]-OH; thioether N-14)	8.4
Cc1cccc(C[C@@H]2NC(=O)[C@H](CC(=O)O)NC(=O)[C@H](Cc3ccc(OCC(=O)O)cc3)NC(=O)[C@H](CCN)NC(=O)CSC[C@@H](C(=O)N[C@@H](CCN)C(=O)NCCCCCCCCCCC(=O)O)NC(=O)[C@H](CO)NC(=O)[C@H](C(C)O)NC(=O)[C@H](CC3CCCCC3)NC(=O)[C@H](CCN)NC(=O)[C@@H](CC(C)C)NC(=O)[C@H](CCCN)NC(=O)[C@H](Cc3ccc(OCC(=O)O)cc3)NC(=O)[C@H](Cc3ccc(-c4ccccc4)cc3)NC(=O)[C@H](Cc3ccc(OCC(=O)O)cc3)NC2=O)c1 (stereo partly drawn) [Compound 3630] ({CH2CO}-[Dab]Y(Carboxymethyl)D[Phe(3-Me)]Y(Carboxymethyl)[Bip]Y(Carboxymethyl)[Orn][dL][Dab][Cha][Thr(3ξ)]SC[Dab][Aun]-OH; thioether N-14)	6.7
Cc1cccc(C[C@@H]2NC(=O)[C@H](CC(=O)O)NC(=O)[C@H](Cc3ccc(OCC(=O)O)cc3)NC(=O)[C@H](CCN)NC(=O)CSC[C@@H](C(=O)N[C@@H](CCN)C(=O)NCCCCCCCCCCC(=O)O)NC(=O)[C@H](CO)NC(=O)[C@H](CCCCN)NC(=O)[C@H](CC3CCCCC3)NC(=O)[C@H](CCN)NC(=O)[C@@H](CC(C)C)NC(=O)[C@H](CCCN)NC(=O)[C@H](Cc3ccc(OCC(=O)O)cc3)NC(=O)[C@H](Cc3ccc(-c4ccccc4)cc3)NC(=O)[C@H](Cc3ccc(OCC(=O)O)cc3)NC2=O)c1 [Compound 3631] ({CH2CO}-[Dab]Y(Carboxymethyl)D[Phe(3-Me)]Y(Carboxymethyl)[Bip]Y(Carboxymethyl)[Orn][dL][Dab][Cha]KSC[Dab][Aun]-OH; thioether N-14)	16
Cc1cccc(C[C@@H]2NC(=O)[C@H](CC(=O)O)NC(=O)[C@H](Cc3ccc(OCC(=O)O)cc3)NC(=O)[C@H](CCN)NC(=O)CSC[C@@H](C(=O)N[C@@H](CCN)C(=O)NCCCCCCCCCCC(=O)O)NC(=O)[C@H](CO)NC(=O)[C@H](Cc3cnc[nH]3)NC(=O)[C@H](CC3CCCCC3)NC(=O)[C@H](CCN)NC(=O)[C@@H](CC(C)C)NC(=O)[C@H](CCCN)NC(=O)[C@H](Cc3ccc(OCC(=O)O)cc3)NC(=O)[C@H](Cc3ccc(-c4ccccc4)cc3)NC(=O)[C@H](Cc3ccc(OCC(=O)O)cc3)NC2=O)c1 [Compound 3632] ({CH2CO}-[Dab]Y(Carboxymethyl)D[Phe(3-Me)]Y(Carboxymethyl)[Bip]Y(Carboxymethyl)[Orn][dL][Dab][Cha]HSC[Dab][Aun]-OH; thioether N-14)	8.7
Cc1cccc(C[C@@H]2NC(=O)[C@H](CC(=O)O)NC(=O)[C@H](Cc3ccc(OCC(=O)O)cc3)NC(=O)[C@H](CCN)NC(=O)CSC[C@@H](C(=O)N[C@@H](CCN)C(=O)NCCCCCCCCCCC(=O)O)NC(=O)[C@H](Cc3cnc[nH]3)NC(=O)[C@H](C(C)O)NC(=O)[C@H](CC3CCCCC3)NC(=O)[C@H](CCN)NC(=O)[C@@H](CC(C)C)NC(=O)[C@H](CCCN)NC(=O)[C@H](Cc3ccc(OCC(=O)O)cc3)NC(=O)[C@H](Cc3ccc(-c4ccccc4)cc3)NC(=O)[C@H](Cc3ccc(OCC(=O)O)cc3)NC2=O)c1 (stereo partly drawn) [Compound 3633] ({CH2CO}-[Dab]Y(Carboxymethyl)D[Phe(3-Me)]Y(Carboxymethyl)[Bip]Y(Carboxymethyl)[Orn][dL][Dab][Cha][Thr(3ξ)]HC[Dab][Aun]-OH; thioether N-14)	8.6
Cc1cccc(C[C@@H]2NC(=O)[C@H](CC(=O)O)NC(=O)[C@H](Cc3ccc(OCC(=O)O)cc3)NC(=O)[C@H](CCN)NC(=O)CSC[C@@H](C(=O)N[C@@H](CCN)C(=O)NCCCCCCCCCCC(=O)O)NC(=O)[C@H](CCCN)NC(=O)[C@H](C(C)(C)O)NC(=O)[C@H](CC3CCCCC3)NC(=O)[C@H](CCN)NC(=O)[C@@H](CC(C)C)NC(=O)[C@H](CCCN)NC(=O)[C@H](Cc3ccc(OCC(=O)O)cc3)NC(=O)[C@H](Cc3ccc(-c4ccccc4)cc3)NC(=O)[C@H](Cc3ccc(OCC(=O)O)cc3)NC2=O)c1 [Compound 3634] ({CH2CO}-[Dab]Y(Carboxymethyl)D[Phe(3-Me)]Y(Carboxymethyl)[Bip]Y(Carboxymethyl)[Orn][dL][Dab][Cha][Val(3-OH)][Orn]C[Dab][Aun]-OH; thioether N-14)	6.3
CCCC[C@H]1C(=O)N[C@@H](Cc2ccc(OCC(=O)O)cc2)C(=O)N[C@@H](CC(=O)O)C(=O)N[C@@H](Cc2cccc(C)c2)C(=O)N[C@@H](Cc2ccc(OCC(=O)O)cc2)C(=O)N[C@@H](Cc2ccc(-c3ccccc3)cc2)C(=O)N[C@@H](Cc2ccc(OCC(=O)O)cc2)C(=O)N[C@@H](CCCN)C(=O)N[C@H](CC(C)C)C(=O)N[C@@H](CCN)C(=O)N[C@@H](CC2CCCCC2)C(=O)N[C@@H](C(C)(C)O)C(=O)N[C@@H](CO)C(=O)N[C@H](C(=O)N[C@@H](CCN)C(=O)NCCCCCCCCCCC(=O)O)CSCC(=O)N1C [Compound 3635] ({CH2CO}-[NMeNle]Y(Carboxymethyl)D[Phe(3-Me)]Y(Carboxymethyl)[Bip]Y(Carboxymethyl)[Orn][dL][Dab][Cha][Val(3-OH)]SC[Dab][Aun]-OH; thioether N-14)	34.9
Cc1cccc(C[C@@H]2NC(=O)[C@H](CC(=O)O)NC(=O)[C@H](Cc3ccc(OCC(=O)O)cc3)NC(=O)[C@H](CCN)NC(=O)CSC[C@@H](C(=O)N[C@@H](CCN)C(=O)N[C@@H](CO)C(=O)NCCCCCCCCCCCC(=O)O)NC(=O)[C@H](CCCN)NC(=O)[C@H](C(C)O)NC(=O)[C@H](CC3CCCCC3)NC(=O)[C@H](CCN)NC(=O)[C@@H](CC(C)C)NC(=O)[C@H](CCCN)NC(=O)[C@H](Cc3ccc(OCC(=O)O)cc3)NC(=O)[C@H](Cc3ccc(-c4ccccc4)cc3)NC(=O)[C@H](Cc3ccc(OCC(=O)O)cc3)NC2=O)c1 (stereo partly drawn) [Compound 3636] ({CH2CO}-[Dab]Y(Carboxymethyl)D[Phe(3-Me)]Y(Carboxymethyl)[Bip]Y(Carboxymethyl)[Orn][dL][Dab][Cha][Thr(3ξ)][Orn]C[Dab]S[12Ado]-OH; thioether N-14)	20.9
CC(=O)NCCCC[C@@H]1NC(=O)[C@H](Cc2ccc(-c3ccccc3)cc2)NC(=O)[C@H](Cc2ccc(O)cc2)NC(=O)[C@H](Cc2cccc(C)c2)NC(=O)[C@H](CC(=O)O)NC(=O)[C@H](Cc2ccc(OCC(=O)O)cc2)NC(=O)[C@H](CCN)NC(=O)CSC[C@@H](C(=O)N[C@@H](CCN)C(=O)N[C@@H](CO)C(=O)NCCCCCCCCCCCC(=O)O)NC(=O)[C@H](CCCCN)NC(=O)[C@H](C(C)O)NC(=O)[C@H](CC2CCCCC2)NC(=O)[C@H](CCN)NC(=O)[C@@H](CC(C)C)NC(=O)[C@H](CCCN)NC1=O (stereo partly drawn) [Compound 3637] ({CH2CO}-[Dab]Y(Carboxymethyl)D[Phe(3-Me)]Y[Bip]K(Ac)[Orn][dL][Dab][Cha][Thr(3ξ)]KC[Dab]S[12Ado]-OH; thioether N-14)	29.1
CC(=O)NCCCC[C@@H]1NC(=O)[C@H](Cc2ccc(-c3ccccc3)cc2)NC(=O)[C@H](Cc2ccc(O)cc2)NC(=O)[C@H](Cc2cccc(C)c2)NC(=O)[C@H](CC(=O)O)NC(=O)[C@H](Cc2ccc(OCC(=O)O)cc2)NC(=O)[C@H](CCN)NC(=O)CSC[C@@H](C(=O)N[C@@H](CCCN)C(=O)N[C@@H](CO)C(=O)NCCCCCCCCCCC(=O)O)NC(=O)[C@H](CCC(=O)O)NC(=O)[C@H](C(C)O)NC(=O)[C@H](CC2CCCCC2)NC(=O)[C@H](CCN)NC(=O)[C@@H](CC(C)C)NC(=O)[C@H](CCCN)NC1=O (stereo partly drawn) [Compound 3638] ({CH2CO}-[Dab]Y(Carboxymethyl)D[Phe(3-Me)]Y[Bip]K(Ac)[Orn][dL][Dab][Cha][Thr(3ξ)]EC[Orn]S[Aun]-OH; thioether N-14)	70.9
